These results are taken from ChEMBL document CHEMBL1146652, “Synthesis and CB1 receptor activities of novel arachidonyl alcohol derivatives” (Bioorg Med Chem Lett, 2004).

pEC50: −log10 of the molar value.

In general, Emax refers to the size of the effect at its maximum, as opposed to the concentration needed. A word on the pEC50: it is the negative decadic logarithm of the EC50, by convention in mol/L. Low readings indicate a large EC50, high ones a small EC50.

Assay [1] has as its target Cannabinoid receptor 1 (Rattus norvegicus) (UniProt P20272). The experiment in a line: Maximal response of cannabinoid receptor to compound was evaluated using [35S]GTP-gamma-S-binding studies. It is filed as functional. In general terms: Binding of GTPγS marks nucleotide exchange on a G protein.
The next assay concerns the target Cannabinoid receptor 1 (Rattus norvegicus, UniProt P20272). The experiment in a line: Cannabinoid receptor 1 dependent activity of compound was evaluated by using [35S]GTP-gamma-S-binding studies. The assay is classed as functional.

Chain of Cannabinoid receptor 1 (Rattus norvegicus) (P20272 whole entry): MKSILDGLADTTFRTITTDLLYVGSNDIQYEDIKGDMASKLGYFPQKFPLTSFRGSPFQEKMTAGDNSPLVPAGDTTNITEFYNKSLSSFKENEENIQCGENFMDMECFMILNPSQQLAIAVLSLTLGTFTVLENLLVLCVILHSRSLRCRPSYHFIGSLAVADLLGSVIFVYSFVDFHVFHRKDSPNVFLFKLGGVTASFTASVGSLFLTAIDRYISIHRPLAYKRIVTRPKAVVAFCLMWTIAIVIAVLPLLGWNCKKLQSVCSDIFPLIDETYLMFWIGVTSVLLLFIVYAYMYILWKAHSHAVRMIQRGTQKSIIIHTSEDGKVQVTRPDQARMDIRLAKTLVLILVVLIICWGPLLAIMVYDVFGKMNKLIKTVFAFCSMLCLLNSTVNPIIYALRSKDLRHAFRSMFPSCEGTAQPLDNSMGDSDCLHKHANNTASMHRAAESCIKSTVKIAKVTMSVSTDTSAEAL
Chain of Cannabinoid receptor 1 (P20272 whole entry): as above

As for `CCCCC/C=C\C/C=C\C/C=C\C/C=C\CCCC(=O)NCCO`, in assay [1], the Emax was found to be 380%.

As for `CCCCC/C=C\C/C=C\C/C=C\C/C=C\CCCCOC(=O)[C@H](O)CO`, the Emax in assay [1] is 301%. At Cannabinoid receptor 1, this compound had a pEC50 of 4.60.

In the case of `CCCCC/C=C\C/C=C\C/C=C\C/C=C\CCCCOC(=O)[C@@H](O)CO`, the Emax in assay [1] was found to be 278%. The compound further gave a pEC50 at Cannabinoid receptor 1 of 4.40.
